According to patent US20060217321A1, “Compositions to improve tic disorders” (priority 2005, published 2006):
Residues, ends and D or L forms follow the SMILES beside them.

Tests used:
tic disorders [1] = experiment: Test Case 1: a case with improved tic disorder; format: in vivo, human; details: for effect of earlier drug therapy on tic symptoms (history): patient history before theanine
Text: <Test Case 1> A Case with Improved Tic Disorder
Patient: (Sixth grade elementary school student);
Chief complaint: shaking hands and head
History: Since being elected as temporary class representative of the fourth grade class of elementary school, the patient had blinking eyes and subsequently shook their face and shoulders; thus, they visited a nearby hospital and received diazepam. […] In the following year, around the time of moving to Osaka, the patient suffered a relapse of symptoms of shaking their face and shoulders again and thus visited the pediatric department of O hospital and received haloperidol.

Tourette's disorder = experiment: Test Case 2: a case with improved Tourette's disorder; format: in vivo, human
Text: <Test Case 2> A Case with Improved Tourette's Disorder
Patient: child; body weight: 43 kg
The tics were milder when they were in school or with others, and were more frequently observed in the presence of only their family. (in the third semester of the sixth grade), they visited our clinic worrying about bullying at their junior high school. […] In addition, the patient continuously moved their hands and legs and tended to be restlessly absent-mindedly hyperactive.
Psychosocial case history: The patient was always crying due to inherent sensitivity; thus, their parent felt anxious about child-rearing. They were severely afraid of strangers and timid, and often cried for fear. […] They often cut into others' conversation and was too talkative. Their parent can get along with their younger sibling casually, but is feeling awkwardness and pain with the patient due to the lack of closeness. Their parent is not nagging so much, and seems to accept the patient. Clinical course: The patient was diagnosed as having Tourette's disorder, and the disease was explained to their parents. To alleviate the symptoms, haloperidol (trade name: Serenase (trademark); Dainippon Pharmaceutical Co. Ltd.) was used.
The administration of theanine is scheduled to be continued until the end of puberty. The patient has joined their junior high school track club, and has tics, although unnoticeable. The patient has become a bit disobedient and often falls silent, but is highly motivated with study.

mice = format: in vivo; details: oral administration of 5 g/kg
tic disorders [2] = experiment: Test Case 3: a case with improved tic disorder; format: in vivo, human; details: patient; 0.8 g theanyl-theanine daily for 30 days
Text: <Test Case 3> A Case with Improved Tic Disorder
Patient: child; height 121 cm; body weight 20 kg
Chief complaint: repetitive guttural
They were diagnosed as having tics.
The parent disciplined the child by scolding. They were pressed with child-rearing and housework and had little free time; thus, they were always nagging due to frustration. In July 1990, the patient developed involuntary movements of shaking their shoulders up and down, and in addition, repetitive guttural. In Sep. 6, 1990, the patient first visited the clinic. The affected child was thin with abdominal palpitation and spasms of the musculus rectus abdominis. Since October, the patient received 8 tablets combined with theanyl-theanine in example 5 (0.8 g theanyl-theanine) daily for 30 days.

## CN1C(=O)CN=C(c2ccccc2)c2cc(Cl)ccc21 [diazepam]
Tic disorders [1]; patient
  effect of earlier drug therapy on tic symptoms (history): no effect

## O=C(CCCN1CCC(O)(c2ccc(Cl)cc2)CC1)c1ccc(F)cc1 [haloperidol]
Tourette's disorder; patient, 0.25 mg to 0.5 mg
  adverse effects of earlier drug therapy: drowsiness was caused as an adverse effect
Tourette's disorder; patient, dosage gradually increased from 0.25 mg to 0.5 mg
  symptoms of Tourette's disorder under earlier drug therapy: alleviated the symptoms such as tics and restlessness
Tic disorders [1]; patient, increased dosage, patient history
  adverse effects of earlier drug therapy (history): speech defect
Tic disorders [1]; patient
  effect of earlier drug therapy on tic symptoms (history): insufficient effect

## CCNC(=O)CC[C@H](N)C(=O)O [theanine, L-theanine]
mice
  death or abnormality in general conditions and body weight: neither death nor abnormality in general conditions and body weight was observed
Tourette's disorder; in vivo
  adverse effects: no adverse effects
Tic disorders [1]; in vivo
  adverse effects: no adverse effects

## CCNC(=O)CC[C@H](NC(=O)[C@@H](N)CCC(=O)NCC)C(=O)O [theanyl-theanine] (H-Glu(NHEt)-Glu(NHEt)-OH)
Tic disorders [2]
  adverse effects: no adverse effects
